Measured values from patent US7723091B2 (priority 1999, dated 2010).
“And” between values parts separate entries of the source, which are not always exact repeats. Equal entries are not always repeated. Where two headings read alike, the source gives them in different places. Marks after values point to notes of the source that are not given here.

Key:
[1] = system: E. acervulina, E. maxima and Clostridium perfringens; assay type: in vivo, broiler chickens; settings: infected
[2] = system: E. acervulina, E. maxima, and C. perfringens; assay type: in vivo, broiler chickens; settings: Trial III; infected; no PI-PLC (T4 mannanase 100 MU/ton; T9 salinomycin 60 g/ton+BMD 50 g/ton)
[3] = system: Eimeria acervulina sporozoites; experiment: In vitro invasion of BHK cells by Eimeria acervulina sporozoites; assay type: cell-based; settings: B. cereus PI-PLC 0.0403 U/mL, recombinant 0.261 U/mL
Description: (§1) Eineria acervulina sporozoites or Eimeria tenella sporozoites and cultured baby hamster kidney (BHK) cells were prepared by published methods. See Augustine, Avian and Poultry Biology Reviews 1:113-122, 2000. For cell pretreatment, cell cultures were overlaid with dilutions of enzymes as described in Table 11, and examined for morphological changes from 5 to 45 min post overlay. After 45 minutes, the monolayer cultures were washed twice, then inoculated with untreated E. acervulina or E. tenella sporozoites. For application during infection, sporozoites were suspended in the appropriate dilution of the enzyme and inoculated immediately into the cell cultures. After 45 minutes incubation, cultures were fixed, stained, and the invasion was quantified.
(§2) Observations were made looking for changes in gross morphology of sporozoites or cells due to enzyme treatment. At the enzyme levels used in these experiments, no morphological change was noted. The sporozoite invasion of the cultured cells was measured after the two methods of enzyme treatment, as well as without enzyme treatment, by histological staining and microscopy procedures. See Augustine, supra.

[4] = system: Eimeria tenella sporozoites; experiment: In vitro invasion of BHK cells by Eimeria tenella sporozoites; assay type: cell-based; settings: B. cereus PI-PLC 0.0403 U/mL, recombinant 0.261 U/mL
Description: as §1, §2

E. coli MG1655 = experiment: Cylinder plate assay for antibiotic activity; assay type: cell-based; settings: E. coli MG1655 testing strain
Description: Fermentation with Bacillus cereus (ATCC 7004) was conducted according to the method described in EXAMPLE 2 except that the initial volume was increased to 20 liters. A test for the presence of antibiotic was conducted with E. coli MG1655 as the testing strain with final fermentation broth or partially purified PI-PLC prepared according to the method described in EXAMPLES 3-5. The test was conducted as a.cylinder plate assay. See Brantner, Pharmazie 52(1):34-40, 1997.

[5] = system: Eimeria acervulina and Clostridium perfringens; assay type: in vivo, broiler chickens; settings: Trial I
[6] = system: E. acervulina and Clostridium perfringens; assay type: in vivo, broiler chickens
[7] = Trial IV, PI-PLC 30 U/lb, Man. 121 MU/ton, BMD 50 g/ton, salinomycin 60 g/ton
[8] = Trial IV Test 13, Man. 5x at 506 MU/ton
[9] = Cell Pretreatment with Enzyme Followed by Wash, Test 1, mannanase 5100 U/mL
[10] = Cell Pretreatment with Enzyme Followed by Wash, Test 2, mannanase 5100 U/mL
[11] = mean of 4 replicates, infected, PI-PLC 0.34 g/ton pure basis (T3, T4) or Sacox 60 g/ton + BMD-50 50 g/ton (T2) in feed
[12] = single replicate (cage) values, infected, PI-PLC 0.34 g/ton pure basis (T3, T4) or Sacox 60 g/ton + BMD-50 50 g/ton (T2) in feed
[13] = Trial II T4 (Rec), T7 (Wt), infected, 10 U/lb
[14] = Application of Enzyme During Infection, Test 2, listed as PI-PLC from B. cereus
[15] = Cell Pretreatment with Enzyme Followed by Wash, Test 1, mannanase 5100 U/mL, listed as PI-PLC from B. cereus
[16] = Cell Pretreatment with Enzyme Followed by Wash, Test 2, mannanase 5100 U/mL, listed as PI-PLC from B. cereus

CC[C@@H](C(=O)[C@@H](C)[C@@H](O)[C@H](C)[C@@H]1O[C@@H]([C@@H](CC)C(=O)O)CC[C@@H]1C)[C@H]1O[C@]2(C=C[C@@H](O)[C@]3(CC[C@@](C)([C@H]4CC[C@](O)(CC)[C@H](C)O4)O3)O2)[C@H](C)C[C@@H]1C [S, Salinomycin, reference compound]
Feed Conversion Day 0-21 [1, 7]: 1.709
Feed Conversion Day 8-21 [1, 7]: 1.719
Lesion Score E. acer. Upper [1, 7]: 1.00
Lesion Score E. max. Middle [1, 7]: 1.09
Live Weight Day 21 [1, 7]: 0.496
Weight Gain Day 0-21 [1, 7]: 0.458
Weight Gain Day 8-21 [1, 7]: 0.368

Bacitracin methylene disalicylate [reference compound]
Feed Conversion Day 0-21 [1, 7]: 1.707
Feed Conversion Day 8-21 [1, 7]: 1.770
Lesion Score E. acer. Upper [1, 7]: 2.25
Lesion Score E. max. Middle [1, 7]: 1.94
Live Weight Day 21 [1, 7]: 0.490
Weight Gain Day 0-21 [1, 7]: 0.453
Weight Gain Day 8-21 [1, 7]: 0.352

endo-1,4- -D-mannanase [β-mannanase]
Feed Consumption Day 0-21 [2]: 10.787^abc
Feed Consumption Day 8-21 [2]: 8.435^abc
Feed Conversion Day 0-21 [2]: 1.501^cd
Feed Conversion Day 8-21 [2]: 1.536^c
Lesion Scores E. acer. [2]: 1.16^ab
Lesion Scores E. max. [2]: 1.44^ab
Live Wt. Day 21 [2]: 0.652^bc
Weight AF/G Treatment (weight adjusted feed conversion) [2]: 1.465
Weight Gain Day 0-21 [2]: 0.611^bc
Weight Gain Day 8-21 [2]: 0.490^b
Feed Conversion Day 0-21 [1, 8]: 1.740
Feed Conversion Day 8-21 [1, 8]: 1.813
Lesion Score E. acer. Upper [1, 8]: 2.13
Lesion Score E. max. Middle [1, 8]: 2.00
Live Weight Day 21 [1, 8]: 0.471
Weight Gain Day 0-21 [1, 8]: 0.437
Weight Gain Day 8-21 [1, 8]: 0.339
Feed Conversion Day 0-21 [1, 7]: 1.803
Feed Conversion Day 8-21 [1, 7]: 1.849
Lesion Score E. acer. Upper [1, 7]: 1.94
Lesion Score E. max. Middle [1, 7]: 1.34
Live Weight Day 21 [1, 7]: 0.483
Weight Gain Day 0-21 [1, 7]: 0.433
Weight Gain Day 8-21 [1, 7]: 0.338
Invasion counts (mean ± standard error of the mean) [3, 9]: 16 ± 1^b
Invasion counts (mean ± standard error of the mean) [3, 10]: 29 ± 2^ab
Invasion counts (mean ± standard error of the mean) ([4]; Application of Enzyme During Infection, Test 1, mannanase 5100 U/mL): 46 ± 6^ab
Invasion counts (mean ± standard error of the mean) [4, 9]: 35 ± 1^b
Invasion counts (mean ± standard error of the mean) [4, 10]: 19 ± 5^a

phosphatidylinositol specific phospholipase C [Wild type PI-PLC]
clearing zone indicating antibiotic activity (E. coli MG1655): No clearing zone
performance compared with the Salinomycin+BMD treatment ([5]; by all criteria (Tables 4-5)): worked as well as or better than the Salinomycin+BMD treatment
Average Body Weight at 21 Days, Mean [5, 11]: 378.71 g and 373.14 g
Average Feed Conversion (0-21 days) Corrected for Weight of Mortality Birds, Mean [5, 11]: 1.425 and 1.419
Average Body Weight at 21 Days [5, 12]: 377.83 g and 366.67 g and 383.83 g and 361.17 g and 378.83 g and 361.33 g and 374.33 g and 403.40 g
Average Feed Conversion (0-21 days) Corrected for Weight of Mortality Birds [5, 12]: 1.438 and 1.404 and 1.407 and 1.445 and 1.423 and 1.421 and 1.432 and 1.406
8-21 Day Feed Conversion (Corrected) [6, 13]: 1.876
8-21 Day Weight Gain [6, 13]: 298.98
Average Intestinal Lesion Score [6, 13]: 1.267
effectiveness compared with recombinant counterpart ([6]; Trial II, same concentration (10 U/lb)): did not work as effectively as its recombinant counterpart
Invasion counts (mean ± standard error of the mean) ([3]; Application of Enzyme During Infection, Test 1, listed as PI-PLC from B. cereus): 33 ± 3^b
Invasion counts (mean ± standard error of the mean) [3, 14]: 25 ± 2^ab
Invasion counts (mean ± standard error of the mean) [3, 15]: 15 ± 1^b
Invasion counts (mean ± standard error of the mean) [3, 16]: 26 ± 1^ab
Invasion counts (mean ± standard error of the mean) ([4]; Application of Enzyme During Infection, Test 1, mannanase 5100 U/mL, listed as PI-PLC from B. cereus): 52 ± 13^ab
Invasion counts (mean ± standard error of the mean) [4, 14]: 37 ± 2^ab
Invasion counts (mean ± standard error of the mean) [4, 15]: 38 ± 2^b
Invasion counts (mean ± standard error of the mean) [4, 16]: 21 ± 2^a
